Data on 3 compounds can be found in EP0240257A2, “Compounds and pharmaceutical preparations having calcium - regulatory activity” (University of Lancaster, priority 1986, dated 1987).

Structures are written as SMILES. Entries after “also recorded” stand apart in the source; their conditions may differ.

For data set [1], the system named is rat urinary bladder detrusor muscle strips. Briefly: Field stimulation contractions of isolated smooth muscle (organ bath tension recording). The procedure: (§1) Smooth muscle preparations were obtained from male Wistar strain albino rats. The animals were killed by a blow to the head and smooth muscle strips (about 2 mm x 10 mm) were dissected from the bladder. The vasa deferentia were divided into two portions and longitudinally bisected. Tests on cardiac muscle were carried out using isolated cannulated flounder heart. All mammalian preparations were maintained in Krebs solution containing NaCl : 120.7 mM; NaH₂PO₄ : 1.3 mM; KCl : 5.9 mM; NaHCO₃ : 15.5 mM and CaCl₂ : 2.5mM; glucose : 11.5 mM. MgCl₂ : 1.2mM The Krebs solution was adjusted to pH 7.3 with HCl and was continuously aerated and maintained at 37°C.
(§2) To record tension the muscle preparations were mounted vertically in jacketed organ baths which were continuously aerated and whose contents could be rapidly changed. The preparations were attached to a set of Grass Instruments ST 0.3C force displacement transducers held in adjustable rackwork, and the racks were adjusted to put slight tension on the preparations. After mounting in the perfusion baths the preparations were allowed to equilibrate for 1 hour, the bath saline being changed every 15 min. The force displacement transducer outputs were connected to a four-channel Grass model 79 polygraph. The stimulation electrode terminals were attached to Grass SIU 5 isolation units connected to two Grass S48 stimulators driven in tandem. Stimulation train parameters varied in different preparations but a common regime consisted of a 200 msec train of pulses at 50 Hz, each pulse being 2-5 msec at 40-50 V. Trains were automatically repeated usually at 100 or 50 sec intervals. The techniques have been described in detail by Huddart and Butler (1986) in Gen. Pharmac., 17, 695-703 (1986).
(§3) The smooth muscle preparations were threaded through two silver/silver chloride ring electrodes (4 mm inside diameter), mounted 10 mm apart on a perspex rod. The bottom ligature was passed through a fine hole in a nylon screw at the base of the rod. By turning the screw the muscle strip could be drawn exactly through the electrode rings. The electrode assemblies were then placed in the jacketed organ baths as described above and the upper muscle ligatures attached to the transducer to measure tension. Both the vas deferens and the bladder smooth muscles responded to the field stimulation with consistent repeatable contractions. It is believed that these contractions are calcium-dependent via the operation of slow calcium channels. The effect of ABA on these contractions was tested by adding a concentrated solution thereof to the perfusion solution to give an overall ABA concentration of 10⁻⁶M. In the two vas deferens studies the slow calcium channel blocker nifedipine was then added in the same manner to produce a concentration of 10⁻⁷M. […]

Data set [2] relates to rat vas deferens smooth muscle. The description is as above. The procedure: as §1, §2, §3
Another data set has as its system flounder heart. In words: Contractile force of isolated cannulated heart. The procedure:
as §1
The flounder heart was maintained at 10°C in flounder saline containing NaCl : 116.7 mM, CaCl₂ : 1.72 mM, Na₂SO₄ : 18.6 mM, TES : 2.5 mM and KCl : 2.71 mM, glucose : 5.0 mM MgSO₄ : 0.67 mM, at pH 7.65.
as §2
The contractile force in flounder heart was measured before and after addition of ABA to the perfusion solution.

For data set [3], the system named is rat urinary bladder detrusor muscle strips. In words: High-K (60 mM K+) contracture response of K+-depolarized muscle. The procedure:
as §1, §2
(A) Rat urinary bladder detrusor muscle strips were tested in a high-K saline prepared by substitution of sodium compounds in the Krebs' solution by equimolar amounts of potassium compounds to give a K+ concentration of 60 mM. At this level of depolarization it is believed that the fast calcium channels are voltage-inactivated. […]

Data set [4] relates to rat vas deferens smooth muscle (partly depolarized). In words: K+-induced (20 mM K) contracture tension, dose-response comparison. The note with it: for activity in enhancing K+-induced contracture tension: parallel trials of ABA and BAY K 8644, result in words. The procedure: Smooth muscle preparations were obtained from male Wistar strain albino rats. The animals were killed by a blow to the head and smooth muscle strips (about 2 mm x 10 mm) were dissected from the bladder. The vasa deferentia were divided into two portions and longitudinally bisected. Tests on cardiac muscle were carried out using isolated cannulated flounder heart. […] MgCl₂ : 1.2mM The Krebs solution was adjusted to pH 7.3 with HCl and was continuously aerated and maintained at 37°C.
as §2, with “intervals.” for “intervals. The techniques have been described in detail by Huddart and Butler (1986) in Gen. Pharmac., 17, 695-703 (1986).”

Data set [5] concerns microsomal calcium efflux. Briefly: Potassium-stimulated microsomal calcium efflux. The format is biochemical.
A short description of data set [6]: Field stimulation response (more recent findings, tissue not stated). The note with it: no tissue or concentration printed.
Where [7] appears, read: Rattus norvegicus, read-out: enhanced field stimulation responses.

`COC(=O)C1=C(C)NC(C)=C(C(=O)OC)C1c1ccccc1[N+](=O)[O-]` [nifedipine, reference compound]: the “inhibition of the ABA augmentation of the field stimulation response (and of the response itself)” value in data set [1] (nifedipine after ABA 10⁻⁶M, bladder) is recorded as “inhibited”; in data set [2] (nifedipine 10⁻⁷M added after ABA 10⁻⁶M, vas deferens), “inhibited”. In addition, in the data set with flounder heart (nifedipine after ABA 10⁻⁶M), the “inhibition of the ABA action on contractile force” value was “inhibited”.

On to `CC1=CC(=O)CC(C)(C)C1(O)/C=C/C(C)=C\C(=O)O` (racemic) [ABA, (1ʹS,2Z,4E)-5-(1ʹ-hydroxy-2ʹ,6ʹ,6ʹ-trimethyl-4ʹ-oxocyclohex-2ʹ-enyl)-3-methyl-penta-2,4-dienoic acid], for which the activation at 1 µM in data set [1] (setting [7]) is ~25%; in data set [2] (setting [7]), ~25%; in data set [3] (Rattus norvegicus, 0.25 h, ABA 10⁻⁶ M added 15 minutes before the high-K solution (K+ 60 mM), read-out: enhancement of contracture tension), 50%. In addition, in data set [3] (ABA 10⁻⁶ M in high-K saline, added just after the initial phasic response), the “tonic phase of the response” value is reported as “enhanced; also recorded: considerable enhancement”. In addition, in data set [3] (ABA 10⁻⁶M, K+-depolarized muscle, result in words), the contracture tension result is reported as “considerably augmented”. For the same compound, the contractile force entry in the data set on flounder heart (ABA 10⁻⁶M in perfusion solution, 10°C) is on record as “augment”. Moreover, the cardiac arrhythmia result with flounder heart (prolonged ABA exposure (15 minutes)) was “pronounced cardiac arrhythmia”. Moreover, the “activity in enhancing K+-induced contracture tension” value in data set [4] is “identical activity”. Besides, the EC (100% enhancement) in data set [4] (rat vas deferens, partly depolarized, read-out: threshold for 100% enhancement of K contracture tension) was ~0.005 µM. The “potassium-stimulated microsomal calcium efflux” value in data set [5] is recorded as “enhances”. Also, the field stimulation response entry in data set [6] was “enhances”.

Turning to `COC(=O)C1=C(C)NC(C)=C([N+](=O)[O-])C1c1ccccc1C(F)(F)F` (stereo not shown) [BAY K 8644, methyl 1,4-dihydro-2,6-dimethyl-5-nitro-4-[2-(trifluoromethyl)-phenyl]-3-pyridinecarboxylate, reference compound], in data set [4], the “activity in enhancing K+-induced contracture tension” value was “identical activity”. Besides, the “threshold / potency relative to ABA” value in data set [4] (rat vas deferens) is listed as “roughly one order of magnitude greater than ABA”.
